The nature of experiment [1]: cells. The note with it: Homo sapiens, UCH1, 72 h. Format: functional, cell-based.
Description: Antiproliferative activity against human UCH1 cells measured after 72 hrs by alamar blue assay
The nature of experiment [2]: cells. Type of experiment: functional, cell-based. The note with it: Homo sapiens, UCH2, 72 h.
Description: Antiproliferative activity against human UCH2 cells measured after 72 hrs by alamar blue assay

By IC50 is commonly meant the concentration that gives 50% inhibition. A lower IC50 goes with greater potency. As for `CN1CCN(CCOc2cc(OC3CCOCC3)c3c(Nc4c(Cl)ccc5c4OCO5)ncnc3c2)CC1` [SARACATINIB], the IC50 is 4300 nM in “cells [1]” and 28 µM in “cells [2]”.

`C=CC(=O)Nc1cc2c(Nc3ccc(F)c(Cl)c3)ncnc2cc1OCCCN1CCOCC1` [CANERTINIB]: the IC50 in “cells [1]” was 80 nM; in “cells [2]”, 17 µM.

As to `COc1cc2ncnc(Nc3ccc(F)c(Cl)c3)c2cc1NC(=O)/C=C/CN1CCCCC1` [DACOMITINIB ANHYDROUS], the values for the IC50 in “cells [1]” and in “cells [2]” were 50 nM and 2.7 µM, respectively.

For the molecule `COc1cc2/c(=N/c3ccc(Br)cc3F)nc[nH]c2cc1OCC1CCN(C)CC1` [VANDETANIB], the IC50 is 1000 nM in the experiment “cells [1]” and 4.2 µM in “cells [2]”.

For `COc1cc(Nc2c(C#N)cnc3cc(OCCCN4CCN(C)CC4)c(OC)cc23)c(Cl)cc1Cl` [BOSUTINIB], the values for the IC50 in “cells [1]” and in the experiment “cells [2]” were 15000 nM and 36 µM, respectively.

On to `CN(C)C/C=C/C(=O)Nc1cc2c(Nc3ccc(F)c(Cl)c3)ncnc2cc1O[C@H]1CCOC1` [AFATINIB], for which the IC50 in the experiment “cells [1]” was 100 nM; in “cells [2]” it was 6.4 µM.

For the molecule `CNC(=O)CN1CCC(Oc2cc3c(Nc4cccc(Cl)c4F)ncnc3cc2OC)CC1` [SAPITINIB], the IC50 in “cells [1]” turned out to be 420 nM; in the experiment “cells [2]”, 5.7 µM.

Consider `C=CC(=O)N1CCC(Oc2cc3c(Nc4ccc(Cl)c(Cl)c4F)ncnc3cc2OC)CC1` [POZIOTINIB], for which the IC50 came out at 110 nM in “cells [1]” and 8.1 µM in “cells [2]”.

With `CCOc1cc2ncc(C#N)c(Nc3ccc(OCc4ccccn4)c(Cl)c3)c2cc1NC(=O)/C=C/CN(C)C` [NERATINIB], the IC50 in the experiment “cells [1]” worked out at 5500 nM; in “cells [2]”, 2.4 µM.

For the molecule `COc1cc2c(Nc3ccc(Cl)c(Cl)c3F)ncnc2cc1OC[C@@H]1C[C@@H]2CN(C)C[C@@H]2C1` [TESEVATINIB], the IC50 in “cells [1]” is 150 nM; in the experiment “cells [2]”, 1.1 µM.

Consider `CCOc1cc2ncc(C#N)c(Nc3ccc(F)c(Cl)c3)c2cc1NC(=O)/C=C/CN(C)C` [PELITINIB], for which the IC50 is 90 nM in the experiment “cells [1]” and 1.6 µM in “cells [2]”.

Source of the values: ChEMBL document CHEMBL4393671, “Design of a Cyclin G Associated Kinase (GAK)/Epidermal Growth Factor Receptor (EGFR) Inhibitor Set to Interrogate the Relationship of EGFR and GAK in Chordoma” (J Med Chem, 2019).
